According to patent US20240139192A1, “METHODS AND COMPOSITIONS COMPRISING A BRAF INHIBITOR AND A MEK INHIBITOR” (Hoffmann-La Roche Inc., priority 2021, published 2024):

Legend:
[1] = molecular target: C-terminal Src kinase (CSK) (Homo sapiens, UniProt P41240); experiment: biochemical
[2] = test system: P-ERK in A375 cells (V600E mutated BRAF); experiment: HTRF assay for P-ERK determination in A375 cells; assay type: cell-based; conditions: Homo sapiens, A-375; A375 cell line, 1 hour drug incubation; read-out: pERK IC50 A375
Description: DMEM no-phenol red medium supplemented with L-glutamine was purchased from (Thermo Fisher Scientific). Fetal bovine serum (FBS) was purchased from VWR. […] 384-well microplates were purchased from Greiner Bio-One, 384-well, (With Lid, HiBase, Low volume cat 784-080).
ERK 1,2 phosphorylation (terminal member of the phosphorylation cascade of the MAPK pathway) is hereafter reported as main readout for the activation status of the MAPK pathway.
In order to allow proper data normalization control wells without drug treatment reported are always included in each plate (according to manufacturer's instruction):
The plate is then centrifuged at 300 rcf for 30 second, sealed to prevent evaporation and incubated overnight in the dark at room temperature.
The plate is then analyzed and fluorescence emission value collected through a Pherastast FSX (BMG Labtech) apparatus at […].
Data are normalized considering the average of the ratio (blank subtracted) derived by DMSO only treated cells as 100% and by considering the average of the ratio (blank subtracted) derived by 10 μM dabrafenib treated cells as 0%. Mean of the normalized points are fitted with sigmoidal curve and IC50 determined. […] Kd is the dissociation constant in the biochemical experiments.

CRAF = CRAF (Homo sapiens, UniProt P04049); experiment: biochemical
CRAF, sequence (P04049 whole entry): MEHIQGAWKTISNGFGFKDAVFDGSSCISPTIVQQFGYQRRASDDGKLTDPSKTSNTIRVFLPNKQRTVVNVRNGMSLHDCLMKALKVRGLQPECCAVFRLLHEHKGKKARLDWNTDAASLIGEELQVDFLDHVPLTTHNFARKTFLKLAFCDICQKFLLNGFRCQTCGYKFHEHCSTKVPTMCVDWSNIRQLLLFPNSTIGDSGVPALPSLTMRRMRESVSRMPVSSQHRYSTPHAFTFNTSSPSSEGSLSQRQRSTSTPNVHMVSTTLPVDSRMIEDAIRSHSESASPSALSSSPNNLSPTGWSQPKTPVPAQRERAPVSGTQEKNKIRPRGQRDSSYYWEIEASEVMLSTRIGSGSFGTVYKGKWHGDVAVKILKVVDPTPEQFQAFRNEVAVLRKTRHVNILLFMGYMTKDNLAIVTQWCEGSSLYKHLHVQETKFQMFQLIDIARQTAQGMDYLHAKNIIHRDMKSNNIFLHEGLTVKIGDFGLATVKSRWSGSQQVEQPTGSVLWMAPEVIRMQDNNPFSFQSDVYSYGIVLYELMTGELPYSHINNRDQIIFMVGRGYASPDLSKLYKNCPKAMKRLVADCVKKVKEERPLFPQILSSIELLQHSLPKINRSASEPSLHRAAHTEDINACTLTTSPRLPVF

BRAF = BRAF (Homo sapiens, UniProt P15056); experiment: biochemical
BRAF, sequence (P15056 whole entry): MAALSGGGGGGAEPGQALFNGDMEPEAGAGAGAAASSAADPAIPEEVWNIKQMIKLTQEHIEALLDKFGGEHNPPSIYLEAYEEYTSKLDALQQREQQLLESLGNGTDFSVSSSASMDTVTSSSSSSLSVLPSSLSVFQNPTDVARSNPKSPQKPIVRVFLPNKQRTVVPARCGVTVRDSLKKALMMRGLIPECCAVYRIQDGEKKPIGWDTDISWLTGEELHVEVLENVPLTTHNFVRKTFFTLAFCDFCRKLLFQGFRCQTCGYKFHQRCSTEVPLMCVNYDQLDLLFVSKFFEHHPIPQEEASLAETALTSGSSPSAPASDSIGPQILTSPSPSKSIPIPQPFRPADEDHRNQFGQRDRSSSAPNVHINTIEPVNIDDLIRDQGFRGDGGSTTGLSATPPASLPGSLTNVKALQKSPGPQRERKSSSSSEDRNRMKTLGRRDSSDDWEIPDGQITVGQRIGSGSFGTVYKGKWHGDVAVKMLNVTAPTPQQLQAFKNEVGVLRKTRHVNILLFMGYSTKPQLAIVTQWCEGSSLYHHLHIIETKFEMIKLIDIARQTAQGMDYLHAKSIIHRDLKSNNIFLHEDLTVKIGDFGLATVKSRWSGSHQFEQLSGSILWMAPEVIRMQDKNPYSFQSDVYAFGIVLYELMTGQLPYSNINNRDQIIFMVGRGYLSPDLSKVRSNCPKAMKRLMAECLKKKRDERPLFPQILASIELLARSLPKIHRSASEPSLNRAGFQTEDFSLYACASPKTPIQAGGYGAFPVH

[3] = molecular target: lymphocyte-specific tyrosine protein kinase (LCK) (Homo sapiens, UniProt P06239); experiment: biochemical
lymphocyte-specific tyrosine protein kinase (LCK), sequence (P06239 whole entry): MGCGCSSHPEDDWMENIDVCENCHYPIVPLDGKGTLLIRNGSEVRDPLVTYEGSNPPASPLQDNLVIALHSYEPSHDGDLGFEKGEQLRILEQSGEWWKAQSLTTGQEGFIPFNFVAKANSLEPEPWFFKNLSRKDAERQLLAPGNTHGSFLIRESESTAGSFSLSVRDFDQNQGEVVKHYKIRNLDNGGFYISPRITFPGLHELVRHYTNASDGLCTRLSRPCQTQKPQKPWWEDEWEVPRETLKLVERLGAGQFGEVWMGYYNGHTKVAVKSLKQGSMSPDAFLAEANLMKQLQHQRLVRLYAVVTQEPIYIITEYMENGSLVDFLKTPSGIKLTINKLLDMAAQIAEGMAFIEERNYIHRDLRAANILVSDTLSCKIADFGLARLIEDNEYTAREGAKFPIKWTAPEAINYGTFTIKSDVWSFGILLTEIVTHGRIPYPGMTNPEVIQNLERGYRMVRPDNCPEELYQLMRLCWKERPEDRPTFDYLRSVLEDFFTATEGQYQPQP

[4] = test system: P-ERK in A375 NRAS Q61K cells; experiment: Western Blot analysis of phosphorylated ERK in A375 NRAS Q61K cells; assay type: cell-based; conditions: 1 h, alone or with 10 nM Cobimetinib, compared with Encorafenib or Encorafenib/Cobimetinib (FIG. 1)
Description: Cell lines were obtained from ATCC, maintained in humidified incubators at 5% CO2 in standard conditions and passaged twice a week.
The A375 cell line presenting BRAF V600E and the RAF dimer inducing mutation NRAS Q61K was utilized to model a mechanism of resistance to BRAFi and BRAFi/MEKi combinations.

BRAF V600E = BRAF V600E (Homo sapiens, UniProt P15056, V600E); experiment: biochemical
BRAF V600E, sequence (P15056 whole entry V600E): as the sequence (P15056 whole entry) above, with V600E counted along it

Kd [1] | IC50 [2] | Kd (CRAF) | Kd (BRAF) | Kd [3] | Kd (BRAF V600E) | Compound | P-ERK inhibition (Western Blot) [4]
23300 nM | 6.9 nM | 1.7 nM | 0.6 nM | 40000 nM | 1.2 nM | Cn1cnc2ccc(Oc3c(F)ccc(NS(=O)(=O)N4CC[C@@H](F)C4)c3C#N)cc2c1=O [(Ia), (3R)-N-[2-cyano-4-fluoro-3-(3-methyl-4-oxo-quinazolin-6-yl)oxy-phenyl]-3-fluoro-pyrrolidine-1-sulfonamide] | superior P-ERK inhibition compared to Encorafenib
9160 nM | 10.6 nM | 1.2 nM | 1.3 nM | 20100 nM | 0.9 nM | Cn1cnc2ccc(Oc3c(F)ccc(NS(=O)(=O)N4CC[C@H](F)C4)c3C#N)cc2c1=O [(Ib), (3S)-N-[2-cyano-4-fluoro-3-(3-methyl-4-oxo-quinazolin-6-yl)oxy-phenyl]-3-fluoro-pyrrolidine-1-sulfonamide] | –
